Where only a bound is given, the exact number is not on record here.

Here are results for 57 molecules from patent US8551984B2, “Aminopyrimidines as SYK inhibitors” (Merck Sharp & Dohme Corp., priority 2009, dated 2013).

The assay deals with rhSYK (Homo sapiens, UniProt P43405). The assay can be described thus: biochemical.
One may read the IC50 as the concentration that inhibits the measured activity by half. Read a high IC50 as weaker potency in that assay. `Cc1cc(Nc2nccc(C(F)(F)F)n2)cc(-c2cnc(C3(O)CCC(C(=O)NCc4cocn4)CC3)s2)c1` (stereo not drawn) [Example 119-42]: the IC50 is < 100 nM.
Then `Cc1cc(Nc2nccc(C(F)(F)F)n2)cc(-c2cnc(C3(O)CCC(C(=O)NC4CCCCC4)CC3)s2)c1` (stereo not drawn) [Example 119-44], with < 100 nM.
The value for `Cc1cc(Nc2nccc(C(F)(F)F)n2)cc(-c2cnc([C@]3(O)CC[C@@H](C(=O)N4CCN(C)CC4)CC3)s2)c1` [Example 119-46] was < 100 nM; that for `Cc1cc(Nc2nccc(C(F)(F)F)n2)cc(-c2cnc([C@]3(O)CC[C@@H](C(=O)N4CCC(O)CC4)CC3)s2)c1` [Example 119-47] was < 100 nM; that for `CC(=O)NCCNC(=O)[C@H]1CC[C@](O)(c2ncc(-c3cc(C)cc(Nc4nccc(C(F)(F)F)n4)c3)s2)CC1` [Example 119-49] was < 100 nM.
Then `Cc1cc(Nc2nccc(C(F)(F)F)n2)cc(-c2cnc([C@]3(O)CC[C@@H](C(=O)N(CCO)CCO)CC3)s2)c1` [Example 119-50], with < 100 nM; and `Cc1cc(Nc2nccc(C(F)(F)F)n2)cc(-c2cnc([C@]3(O)CC[C@@H](C(=O)NCc4ccccc4)CC3)s2)c1` [Example 119-51], with < 100 nM; and `Cc1cc(Nc2nccc(C(F)(F)F)n2)cc(-c2cnc([C@]3(O)CC[C@@H](C(=O)NCc4ccccn4)CC3)s2)c1` [Example 119-54], with < 100 nM.
Turning to `Cc1cc(Nc2nccc(C(F)(F)F)n2)cc(-c2cnc([C@]3(O)CC[C@@H](C(=O)Nc4ccc(O)cc4)CC3)s2)c1` [Example 119-55], the IC50 is < 100 nM.
As for `Cc1cc(Nc2nccc(C(F)(F)F)n2)cc(-c2cnc([C@]3(O)CC[C@@H](C(=O)Nc4ccccc4O)CC3)s2)c1` [Example 119-56], the IC50 is < 100 nM.
For the molecule `Cc1cc(Nc2nccc(C(F)(F)F)n2)cc(-c2cnc(C3(O)CCC(C(=O)N4CCC(C#N)CC4)CC3)s2)c1` (stereo not drawn) [Example 119-59], the IC50 was < 100 nM.
The value for `Cc1cc(Nc2nccc(C(F)(F)F)n2)cc(-c2cnc(C3(O)CCC(C(=O)N4CCCC(C#N)C4)CC3)s2)c1` (stereo not drawn) [Example 119-60] was < 100 nM; that for `Cc1cc(Nc2nccc(C(F)(F)F)n2)cc(-c2cnc([C@]3(O)CC[C@@H](C(=O)Nc4ccc(F)cc4)CC3)s2)c1` [Example 119-62] was < 100 nM.
The value for `Cc1cc(Nc2nccc(C(F)(F)F)n2)cc(-c2cnc([C@]3(O)CC[C@@H](C(=O)NCc4cccs4)CC3)s2)c1` [Example 119-63] was < 100 nM; that for `CC(=O)N(C)CCNC(=O)C1CCC(O)(c2ncc(-c3cc(C)cc(Nc4nccc(C(F)(F)F)n4)c3)s2)CC1` (stereo not drawn) [Example 119-68] was < 100 nM; that for `Cc1cc(Nc2nccc(C(F)(F)F)n2)cc(-c2cnc(C3(O)CCC(C(=O)N(C)Cc4ccccc4)CC3)s2)c1` (stereo not drawn) [Example 119-69] was < 100 nM.
For `Cc1cc(Nc2nccc(C(F)(F)F)n2)cc(-c2cnc(C3(O)CCC(C(=O)NCCc4ccccc4)CC3)s2)c1` (stereo not drawn) [Example 119-70], the IC50 is < 100 nM.
The value for `Cc1cc(Nc2nccc(C(F)(F)F)n2)cc(-c2cnc([C@]3(O)CC[C@@H](C(=O)NCc4cccc(O)c4)CC3)s2)c1` [Example 119-71] was < 100 nM; that for `Cc1cc(Nc2nccc(C(F)(F)F)n2)cc(-c2cnc([C@]3(O)CC[C@@H](C(=O)Nc4ccc(CO)cc4)CC3)s2)c1` [Example 119-72] was < 100 nM.
The value for `Cc1cc(Nc2nccc(C(F)(F)F)n2)cc(-c2cnc([C@]3(O)CC[C@@H](C(=O)Nc4cccc(CO)c4)CC3)s2)c1` [Example 119-73] was < 100 nM; that for `Cc1cc(Nc2nccc(C(F)(F)F)n2)cc(-c2cnc([C@]3(O)CC[C@@H](C(=O)NCc4ccccc4O)CC3)s2)c1` [Example 119-74] was < 100 nM.
The value for `Cc1cc(Nc2nccc(C(F)(F)F)n2)cc(-c2cnc([C@]3(O)CC[C@@H](C(=O)NCc4ccc(O)cc4)CC3)s2)c1` [Example 119-75] was < 100 nM.
For `Cc1cc(Nc2nccc(C(F)(F)F)n2)cc(-c2cnc([C@]3(O)CC[C@@H](C(=O)Nc4ccc(O)cc4O)CC3)s2)c1` [Example 119-76], the IC50 was < 100 nM.
Then `Cc1cc(Nc2nccc(C(F)(F)F)n2)cc(-c2cnc(C3(O)CCC(C(=O)NCc4ccc(F)cc4)CC3)s2)c1` (stereo not drawn) [Example 119-77], with < 100 nM.
The value for `CC(=O)NCCCCNC(=O)[C@H]1CC[C@](O)(c2ncc(-c3cc(C)cc(Nc4nccc(C(F)(F)F)n4)c3)s2)CC1` [Example 119-81] was < 100 nM; that for `Cc1cc(Nc2nccc(C(F)(F)F)n2)cc(-c2cnc([C@]3(O)CC[C@@H](C(=O)Nc4ccc5[nH]ccc5c4)CC3)s2)c1` [Example 119-82] was < 100 nM.
Then `Cc1cc(Nc2nccc(C(F)(F)F)n2)cc(-c2cnc([C@]3(O)CC[C@@H](C(=O)NCCCc4ccccc4)CC3)s2)c1` [Example 119-83], with < 100 nM.
With `Cc1cc(Nc2nccc(C(F)(F)F)n2)cc(-c2cnc(C3(O)CCC(C(=O)NCCOc4ccccc4)CC3)s2)c1` (stereo not drawn) [Example 119-84], the concentration for half-maximal inhibition (IC50) was < 100 nM.
Then `Cc1cc(Nc2nccc(C(F)(F)F)n2)cc(-c2cnc([C@]3(O)CC[C@@H](C(=O)NCc4ccc(O)c(O)c4)CC3)s2)c1` [Example 119-86], with < 100 nM.
The value for `Cc1cc(Nc2nccc(C(F)(F)F)n2)cc(-c2cnc([C@]3(O)CC[C@@H](C(=O)NCc4ccc(Cl)cc4)CC3)s2)c1` [Example 119-87] was < 100 nM.
Then `Cc1cc(Nc2nccc(C(F)(F)F)n2)cc(-c2cnc([C@]3(O)CC[C@@H](C(=O)NCCCN4CCCC4=O)CC3)s2)c1` [Example 119-88], with < 100 nM; and `Cc1cc(Nc2nccc(C(F)(F)F)n2)cc(-c2cnc(C3(O)CCC(C(=O)NC4CCC(C(N)=O)CC4)CC3)s2)c1` (stereo not drawn) [Example 119-90], with < 100 nM.
For the molecule `Cc1cc(Nc2nccc(C(F)(F)F)n2)cc(-c2cnc(C3(O)CCC(C(=O)NC4CCC(C(=O)O)CC4)CC3)s2)c1` (stereo not drawn) [Example 119-91], the half-maximal inhibitory concentration (IC50) is < 100 nM.
On to `COC(=O)N1CCN(C(=O)C2CCC(O)(c3ncc(-c4cc(C)cc(Nc5nccc(C(F)(F)F)n5)c4)s3)CC2)CC1` (stereo not drawn) [Example 119-92], for which the IC50 was < 100 nM.
Then `Cc1cc(Nc2nccc(C(F)(F)F)n2)cc(-c2cnc(C3(O)CCC(C(=O)NC4CCCc5ccccc54)CC3)s2)c1` (stereo not drawn) [Example 119-93], with < 100 nM; and `Cc1cc(Nc2nccc(C(F)(F)F)n2)cc(-c2cnc([C@]3(O)CC[C@@H](C(=O)NCc4cn5ccccc5n4)CC3)s2)c1` [Example 119-94], with < 100 nM; and `Cc1cc(Nc2nccc(C(F)(F)F)n2)cc(-c2cnc(C3(O)CCC(C(=O)NC4c5ccccc5CC4O)CC3)s2)c1` (stereo not drawn) [Example 119-95], with < 100 nM.
The value for `Cc1cc(Nc2nccc(C(F)(F)F)n2)cc(-c2cnc([C@]3(O)CC[C@@H](C(=O)NCc4cccc5c4C(=O)NC5)CC3)s2)c1` [Example 119-96] was < 100 nM.
The value for `Cc1cc(Nc2nccc(C(F)(F)F)n2)cc(-c2cnc([C@]3(O)CC[C@@H](C(=O)NCc4ccc5c(c4)C(=O)NC5)CC3)s2)c1` [Example 119-97] was < 100 nM.
As to `Cc1cc(Nc2nccc(C(F)(F)F)n2)cc(-c2cnc([C@]3(O)CC[C@@H](C(=O)NCc4ccc5c(c4)CNC5=O)CC3)s2)c1` [Example 119-99], the IC50 was < 100 nM.
The value for `Cc1cc(Nc2nccc(C(F)(F)F)n2)cc(-c2cnc([C@]3(O)CC[C@@H](C(=O)NCc4ccc(C(F)(F)F)cc4)CC3)s2)c1` [Example 119-100] was < 100 nM.
The molecule `Cc1cc(Nc2nccc(C(F)(F)F)n2)cc(-c2cnc([C@]3(O)CC[C@@H](C(=O)N4CCC(Cc5ccccc5)CC4)CC3)s2)c1` [Example 119-102] returned a 50% inhibitory concentration (IC50) of 100 to 1000 nM.
For the molecule `Cc1cc(Nc2nccc(C(F)(F)F)n2)cc(-c2cnc([C@]3(O)CC[C@@H](C(=O)NCc4ccc5c(c4)NC(=O)CC5)CC3)s2)c1` [Example 119-103], the IC50 was < 100 nM.
The value for `Cc1cc(Nc2nccc(C(F)(F)F)n2)cc(-c2cnc([C@]3(O)CC[C@@H](C(=O)NCc4ccc(-n5cc(CO)cn5)cc4)CC3)s2)c1` [Example 119-105] was < 100 nM.
The value for `Cc1cc(Nc2nccc(C(F)(F)F)n2)cc(-c2cnc(C3(O)CCC(C(=O)NCc4ccc(CC5COC(=O)N5)cc4)CC3)s2)c1` (stereo not drawn) [Example 119-106] was < 100 nM; that for `Cc1cc(Nc2nccc(C)n2)cc(-c2cnc(C3(O)CCC(C(=O)NCC#N)C(C)C3)s2)c1` (stereo not drawn) [Example 119-108] was < 100 nM; that for `Cc1cc(Nc2nccc(C(C)(C)C)n2)cc(-c2cnc(C3(O)CCC(C(N)=O)C(C)C3)s2)c1` (stereo not drawn) [Example 119-109] was < 100 nM.
Then `Cc1cc(Nc2nccc(OC(C)C)n2)cc(-c2cnc(C3(O)CCC(C(N)=O)C(C)C3)s2)c1` (stereo not drawn) [Example 119-110], with < 100 nM; and `Cc1cc(Nc2nccc(C(C)C)n2)cc(-c2cnc(C3(O)CCC(C(=O)NCC#N)C(C)C3)s2)c1` (stereo not drawn) [Example 119-113], with < 100 nM; and `Cc1cc(Nc2nccc(C)n2)cc(-c2cnc(C3(O)CCC(C(=O)NCc4cccnc4)C(C)C3)s2)c1` (stereo not drawn) [Example 119-114], with < 100 nM.
With `Cc1cc(Nc2nccc(C(C)C)n2)cc(-c2cnc(C3(O)CCC(C(=O)NCc4cccnc4)C(C)C3)s2)c1` (stereo not drawn) [Example 119-115], the half-inhibitory concentration (IC50) was < 100 nM.
The value for `COc1ccnc(Nc2cc(C)cc(-c3cnc(C4(O)CCC(C(N)=O)C(C)(C)C4)s3)c2)n1` (stereo not drawn) [Example 119-117] was < 100 nM.
The value for `Cc1cc(Nc2nccc(C3CC3)n2)cc(-c2cnc(C3(O)CCC(C(N)=O)C(C)(C)C3)s2)c1` (stereo not drawn) [Example 119-118] was < 100 nM; that for `Cc1cc(Nc2nccc(C(C)C)n2)cc(-c2cnc(C3(O)CCC(C(N)=O)C(C)(C)C3)s2)c1` (stereo not drawn) [Example 119-119] was < 100 nM.
Then `Cc1cc(Nc2nccc(C(C)O)n2)cc(-c2cnc(C3(O)CCC(C(N)=O)C(C)(C)C3)s2)c1` (stereo not drawn) [Example 119-120], with < 100 nM; and `Cc1cc(Nc2nccc(C(C)F)n2)cc(-c2cnc(C3(O)CCC(C(N)=O)C(C)(C)C3)s2)c1` (stereo not drawn) [Example 119-122], with < 100 nM.
As for `Cc1cc(Nc2nccc(C(C)(C)C)n2)cc(-c2cnc(C3(O)CCC(C(N)=O)C(C)(C)C3)s2)c1` (stereo not drawn) [Example 119-125], the IC50 is < 100 nM.
